Source: US20060030603A1, “Novel aryl urea analogs and use thereof as antibacterial agents” (priority 2004, published 2006)
≈ marks a conversion by molar mass, not a printed value. Like-named read-outs stand apart in the source and are kept apart here.

Legend:
[1] = system: S. aureus ATCC 13709; assay: MIC assay, S. aureus; format: cell-based
Experimental: (§1) In vitro structure/activity relationship (“SAR”) tests were performed according to the following procedure: MIC assays were carried out in a 150 μL volume in duplicate in 96-well clear flat-bottom plates. The bacterial suspension from an overnight culture growth in the appropriate medium was added to a solution of test compound in 0.5% DMSO in water. Final bacterial inoculum was approximate 10^3-10^4 CFU/well. The percentage growth of the bacteria in the test wells relative to that observed for a control well containing no compound was determined by measuring absorbance at 595 nm (A595) after 20-24 h at 37° C. […] The bacterial strains used for the assays include S. aureus ATCC 13709, S. pyogenes ATCC 49399, E. faecalis ATCC 29212, E. faecium ATCC 6569, E. coli ATCC 25922, K. pneumoniae ATCC 13383, P. vulgaris ATCC 8427, P. aeruginosa ATCC 25416. The results of the in vitro SAR tests are in Tables 1-3.

[2] = system: P. vulgaris ATCC 8427; assay: MIC assay, P. vulgaris; format: cell-based
Experimental: as §1

[3] = system: K. pneumoniae ATCC 13383; assay: MIC assay, K. pneumoniae; format: cell-based
Experimental: as §1

[4] = system: E. coli ATCC 25922; assay: MIC assay, E. coli; format: cell-based
Experimental: as §1

[5] = system: P. aeruginosa ATCC 25416; assay: MIC assay, P. aeruginosa; format: cell-based
Experimental: as §1

[6] = system: E. faecalis ATCC 29212; assay: MIC assay, E. faecalis; format: cell-based
Experimental: as §1

[7] = system: S. pyogenes ATCC 49399; assay: MIC assay, S. pyogenes; format: cell-based
Experimental: as §1

[8] = system: E. faecium ATCC 6569; assay: MIC assay, E. faecium; format: cell-based
Experimental: as §1

[9] = log P; format: physicochemical
[10] = Staphylococcus aureus, ATCC13709, read-out: MIC S. aureus
[11] = Table 2, benzylamino group modified analogs
[12] = Table 1, thiourea/urea analogs, acetate salts
[13] = Proteus vulgaris, ATCC8427; read-out: MIC P. vulgaris ATCC 8427
[14] = Staphylococcus aureus, ATCC13709, Table 4, read-out: MIC S. aureus ATCC 13709
[15] = Klebsiella pneumoniae, ATCC13383; read-out: MIC K. pneumoniae ATCC 13383
[16] = Escherichia coli, ATCC25922; read-out: MIC E. coli ATCC 25922
[17] = Pseudomonas aeruginosa, ATCC25416; read-out: MIC P. aeruginosa ATCC 25416
[18] = Enterococcus faecalis, ATCC29212; read-out: MIC E. faecalis ATCC 29212
[19] = Streptococcus pyogenes, ATCC49399; read-out: MIC S. pyogenes ATCC 49399
[20] = Enterococcus faecium, ATCC6569; read-out: MIC E. faecium ATCC 6569
[21] = Staphylococcus aureus, ATCC13709, Table 2, benzylamino group modified analogs, read-out: MIC S. aureus
[22] = Table 2, benzylamino group modified analogs, read-out: MIC S. aureus

In the case of O=C(NCCCNCc1cc(Br)cc(Br)c1)Nc1ccc(C(F)(F)F)cc1 [9d, 1-[3-(3,5-Dibromo-benzylamino)-propyl]-3-(4-trifluoromethyl-phenyl)-urea], the MIC [1, 10] is reported as 3 to 6 µM (≈ 1.53 to 3.05 µg/mL) and the “MIC S. aureus” value [1, 11] is reported as 3 to 6 µM.

In the case of COc1ccccc1NC(=O)NCCCNCc1cc(Br)cc(Br)c1 [9a], the “MIC S. aureus” value [1, 12] is reported as 25 to 50 µM.

With CSc1ccc(NC(=O)NCCCNCc2cc(Br)cc(Br)c2)cc1 [9e] the “MIC S. aureus” value [1, 12] was 25 to 50 µM.

In the case of CC(=O)NC[C@H]1CN(c2ccc(N3CCOCC3)c(F)c2)C(=O)O1 [Linezolide, reference compound], the MIC [2, 13] is reported as 12 to 25 µM (≈ 4.05 to 8.43 µg/mL), the MIC ([1]; Staphylococcus aureus, ATCC13709, Table 1, thiourea/urea analogs, acetate salts, read-out: MIC S. aureus) is reported as 3 to 6 µM and the MIC [1, 14] is reported as 3 to 6 µM (≈ 1.01 to 2.02 µg/mL). For the same compound, the “MIC S. aureus” value [1, 11] was 3 to 6 µM, the MIC [3, 15] was greater than 100 µM and the MIC [4, 16] was greater than 100 µM. For the same compound, the MIC [5, 17] was greater than 100 µM, the MIC [6, 18] was 3 to 6 µM (≈ 1.01 to 2.02 µg/mL) and the MIC [7, 19] was 1.5 to 3 µM (≈ 0.506 to 1.01 µg/mL). The MIC [8, 20] was greater than 100 µM.

In the case of COc1cccc(NC(=S)NCCCNCc2cc(Br)cc(Br)c2)c1 [8j], the “MIC S. aureus” value [1, 12] is reported as 25 to 50 µM.

Work on CC(C)(C)c1ccc(CNCCCNC(=O)Nc2ccc(C(F)(F)F)cc2)cc1 [12i, 1-[3-(4-tert-Butyl-benzylamino)-propyl]-3-(4-trifluoromethyl-phenyl)-urea] yielded an MIC [2, 13] of 12 to 25 µM (≈ 4.89 to 10.2 µg/mL), a logP [9] of 4.94 and an MIC [1, 21] of 3 to 6 µM (≈ 1.22 to 2.44 µg/mL). It also gave an MIC [1, 14] of 3 to 6 µM (≈ 1.22 to 2.44 µg/mL), an MIC [3, 15] of 3 to 6 µM (≈ 1.22 to 2.44 µg/mL) and an MIC [4, 16] of 6 to 12 µM (≈ 2.44 to 4.89 µg/mL). The MIC [5, 17] was greater than 100 µM, the MIC [6, 18] was 6 to 12 µM (≈ 2.44 to 4.89 µg/mL) and the MIC [7, 19] was 3 to 6 µM (≈ 1.22 to 2.44 µg/mL). The MIC [8, 20] was 3 to 6 µM (≈ 1.22 to 2.44 µg/mL).

For COc1cc(Br)cc(CNCCCNC(=O)Nc2ccc(C(F)(F)F)cc2)c1O [12t], the “MIC S. aureus” value [1, 11] was 12 to 25 µM.

For CN(C)c1ccc(CNCCCNC(=O)Nc2ccc(C(F)(F)F)cc2)cc1 [12j], the “MIC S. aureus” value [1, 11] was 12 to 25 µM.

For O=C(NCCCNCc1cc(Br)cc(Br)c1)Nc1ccc(OC(F)(F)F)cc1 [9g], the “MIC S. aureus” value [1, 12] was 6 to 12 µM.

COc1ccccc1NC(=S)NCCCNCc1cc(Br)cc(Br)c1 [8c] showed an MIC ([1]; Table 1, thiourea/urea analogs, acetate salts, read-out: MIC S. aureus) greater than 100 µM.

With COc1ccccc1-c1ccc(CNCCCNC(=O)Nc2ccc(C(F)(F)F)cc2)cc1 [12g] the “MIC S. aureus” value [1, 11] was 6 to 12 µM.

In the case of Fc1ccccc1NC(=S)NCCCNCc1cc(Br)cc(Br)c1 [8a], the “MIC S. aureus” value [1, 12] is reported as 25 to 50 µM.

S=C(NCCCNCc1cc(Br)cc(Br)c1)Nc1ccc(Cl)c(Cl)c1 [8k, 1-[3-(3,5-Dibromo-benzylamino)-propyl]-3-(3,4-dichloro-phenyl)-thiourea] showed an MIC [1, 10] of 3 to 6 µM (≈ 1.58 to 3.16 µg/mL).

In the case of COc1ccc(-c2ccc(CNCCCNC(=O)Nc3ccc(C(F)(F)F)cc3)cc2)cc1 [12f], the “MIC S. aureus” value [1, 11] is reported as 3 to 6 µM.

For O=C(NCCCNCc1cc(Br)cc(Br)c1)Nc1cccc(C(F)(F)F)c1 [9b], the “MIC S. aureus” value [1, 12] was 6 to 12 µM.

With CSc1ccccc1NC(=S)NCCCNCc1cc(Br)cc(Br)c1 [8d] the “MIC S. aureus” value [1, 12] was 50 to 100 µM.

O=C(NCCCNCc1cc(Br)cc(Br)c1)Nc1ccc(Cl)c(Cl)c1 [9f, 1-[3-(3,5-Dibromo-benzylamino)-propyl]-3-(3,4-dichloro-phenyl)-urea] showed an MIC ([2]; Proteus vulgaris, ATCC8427, read-out: MIC P. vulgaris ATCC 8427) of 12 to 25 µM (≈ 6.12 to 12.8 µg/mL), a logP [9] of 4.89 and an MIC [1, 10] of 3 to 6 µM (≈ 1.53 to 3.06 µg/mL). For the same compound, the MIC ([1]; Staphylococcus aureus, ATCC13709, read-out: MIC S. aureus ATCC 13709) was 3 to 6 µM (≈ 1.53 to 3.06 µg/mL), the MIC ([3]; Klebsiella pneumoniae, ATCC13383, read-out: MIC K. pneumoniae ATCC 13383) was 6 to 12 µM (≈ 3.06 to 6.12 µg/mL) and the MIC ([4]; Escherichia coli, ATCC25922, read-out: MIC E. coli ATCC 25922) was 12 to 25 µM (≈ 6.12 to 12.8 µg/mL). The MIC ([5]; Pseudomonas aeruginosa, ATCC25416, read-out: MIC P. aeruginosa ATCC 25416) was greater than 100 µM, the MIC ([6]; Enterococcus faecalis, ATCC29212, read-out: MIC E. faecalis ATCC 29212) was 6 to 12 µM (≈ 3.06 to 6.12 µg/mL) and the MIC ([7]; Streptococcus pyogenes, ATCC49399, read-out: MIC S. pyogenes ATCC 49399) was 6 to 12 µM (≈ 3.06 to 6.12 µg/mL). It also gave an MIC ([8]; Enterococcus faecium, ATCC6569, read-out: MIC E. faecium ATCC 6569) greater than 100 µM.

For Cc1ccc(NC(=S)NCCCNCc2cc(Br)cc(Br)c2)cc1 [8r], the “MIC S. aureus” value [1, 12] was 12 to 25 µM.

For CN(CCCNC(=O)Nc1ccc(C(F)(F)F)cc1)Cc1cc(Br)cc(Br)c1 [compound 13], the MIC [1, 22] was greater than 100 µM.

For O=C(NCCCNCCCOc1ccc(Br)cc1Br)Nc1ccc(C(F)(F)F)cc1 [14a, 1-{3-[3-(2,4-Dibromo-phenoxy)-propylamino]-propyl}-3-(4-trifluoromethyl-phenyl)-urea], the MIC [1, 21] was 3 to 6 µM (≈ 1.66 to 3.32 µg/mL).

With O=C(NCCCNCc1ccc(Br)[nH]1)Nc1ccc(C(F)(F)F)cc1 [15e, 1-{3-[(5-bromo-1H-pyrrol-2-ylmethyl)-amino]-propyl}-3-(4-trifluoromethyl-phenyl)-urea] the MIC ([1]; Staphylococcus aureus, ATCC13709, Table 3, heteroaryl analogs, read-out: MIC S. aureus) was 3 to 6 µM (≈ 1.26 to 2.52 µg/mL).

For O=C(NCCCNCc1cc(Br)cc(Br)c1)Nc1ccc(Cl)cc1 [9c], the “MIC S. aureus” value [1, 12] was 6 to 12 µM.

With CC(=O)Nc1ccc(CNCCCNC(=O)Nc2ccc(C(F)(F)F)cc2)cc1 [12k] the MIC [1, 22] was greater than 100 µM.
